According to US9873883B2, “Glyphosate resistant plants and associated methods” (Dow AgroSciences LLC, priority 2012, dated 2018):

Tests used:
Experiment in all cases: Postemergence glyphosate tolerance, visual injury
Format in all cases: in vivo, Arabidopsis thaliana
[1] = system: Arabidopsis transformed with TraP4 v5::dgt-14 (pDAB107526); conditions: 2 weeks after application
Description: (§1) Transgenic T1 Arabidopsis plants containing the dgt-14 transgene were sprayed with differing rates of glyphosate. A distribution of varying concentrations of glyphosate rates, including elevated rates, were applied in this study to determine the relative levels of resistance (105, 420, 1,680 or 3,360 g ae/ha). The typical 1× field usage rate of glyphosate is 1,120 g ae/ha. The T1 Arabidopsis plants that were used in this study were variable in copy number for the dgt-14 transgene. The low copy dgt-14 T1 Arabidopsis plants were identified using the molecular confirmation assays described above, and self-pollinated and used to produce T2 plants.
(§2) The Arabidopsis T1 transformants were first selected from the background of untransformed seed using a glufosinate selection scheme. Three flats or 30,000 seed were analyzed for each T1 construct. The T1 plants selected above were molecularly characterized and the plants were subsequently transplanted to individual pots and sprayed with various rates of commercial glyphosate as previously described. The dose response of these plants is presented in terms of % visual injury 2 weeks after treatment (WAT). […] An arithmetic mean and standard deviation is presented for each construct used for Arabidopsis transformation. The range in individual response is also indicated in the last column for each rate and transformation. Wildtype, non-transformed Arabidopsis (c.v. Columbia) served as a glyphosate sensitive control.
(§3) Selected T1 Arabidopsis plants which were identified to contain low-copy numbers of transgene insertions (1-3 copies) were self-fertilized to produce a second generation for additional assessment of glyphosate tolerance. […] In the T2 generation hemizygous and homozygous plants were available for testing for each event and therefore were included for each rate of glyphosate tested. Hemizygous plants contain two different alleles at a locus as compared to homozygous plants which contain the same two alleles at a locus. The copy number and ploidy levels of the T2 plants were confirmed using the molecular analysis protocols previously described. Likewise, glyphosate was applied using the methods and rates as previously described. The dose response of the plants is presented in terms of % visual injury 2 weeks after treatment (WAT). […] An arithmetic mean and standard deviation are presented for each construct used for Arabidopsis transformation. The range in individual response is also indicated in the last column for each rate and transformation. Wildtype, non-transformed Arabidopsis (cv. Columbia) served as a glyphosate sensitive control. In addition, plants comprising a glyphosate herbicide resistance gene, dgt-1 (as described in U.S. patent Ser. No. 12/558,351, incorporated herein by reference in its entirety) were included as a positive control.
(§4) Randomly selected T2 Arabidopsis plants which were identified to contain low-copy numbers of transgene insertions (1-3 copies) were self-fertilized to produce a third generation for additional assessment of glyphosate tolerance. Arabidopsis seed from the third generation (T3) were planted and evaluated for glyphosate tolerance using the same protocols as previously described. […] These Events were assayed via LC-MS-MS to confirm that the plants expressed the DGT-14 protein. […] Exemplary resistant T3 Events comprised dgt-14 linked with TraP8 v2 (pDAB105526), TraP9 v2 (pDAB105527), TraP12 v2 (pDAB105528) and TraP13 v2 (pDAB105529).

[2] = system: Arabidopsis transformed with TraP9 v2::dgt-14 (pDAB105527); conditions: for Visual % injury (Ave): 2 weeks after application
Description: as §1, §2, §3, §4

[3] = system: Arabidopsis transformed with TraP5 v1::dgt-14 (pDAB102787); conditions: 2 weeks after application
Description: as §1, §2, §3, §4

[4] = system: Arabidopsis transformed with TraP5 v2::dgt-14 (pDAB105525); conditions: 2 weeks after application
Description: as §1, §2, §3, §4

[5] = system: Non-transformed control Arabidopsis (cv. Columbia); conditions: 2 weeks after application
Description: as §1, §2, §3, §4

[6] = system: Arabidopsis transformed with TraP9 v2::dgt-14 (pDAB105527); conditions: 2 weeks after application
[7] = system: Arabidopsis transformed with TraP5 v1::dgt-14 (pDAB102787); conditions: 2 weeks after application; remark: listed apart in the source

## O=C(O)CNCP(=O)(O)O [glyphosate, N-(phosphonomethyl)glycine]
[1]; T1, 105 g ae/ha
  Visual % injury (Ave): 85.8%
[1]; T1, 420 g ae/ha
  Visual % injury (Ave): 91.0%
[1]; T1, 1680 g ae/ha
  Visual % injury (Ave): 96.5%
[1]; T1, 3360 g ae/ha
  Visual % injury (Ave): 95.8%
[1]; T2, 420 g ae/ha
  Visual % injury (Ave): 85.0%
[1]; T2, 840 g ae/ha
  Visual % injury (Ave): 87.5%
[1]; T2, 1680 g ae/ha
  Visual % injury (Ave): 92.5%
[1]; T2, 3360 g ae/ha
  Visual % injury (Ave): 95.0%
[2]; T1, 105 g ae/ha
  Visual % injury (Ave): 23.0%
[2]; T1, 420 g ae/ha
  Visual % injury (Ave): 37.5%
[2]; T1, 1680 g ae/ha
  Visual % injury (Ave): 48.8%
[2]; T1, 3360 g ae/ha
  Visual % injury (Ave): 63.8%
[2]; T2, 420 g ae/ha
  Visual % injury (Ave): 0.0%
[2]; T2, 1680 g ae/ha
  Visual % injury (Ave): 1.8%
[2]; T2, 3360 g ae/ha
  Visual % injury (Ave): 17.5%
[2]; T2, all concentrations of glyphosate tested
  injury range: less than 20%
[2]; T3, 420 g ae/ha
  Visual % injury (Ave): 0.0%
[2]; T3, 1680 g ae/ha
  Visual % injury (Ave): 0.0%
[2]; T3, 3360 g ae/ha
  Visual % injury (Ave): 4.3%
[2]; T3, all concentrations of glyphosate tested
  injury range: less than 20%
[3]; T1, 105 g ae/ha
  Visual % injury (Ave): 64.0%
[3]; T1, 420 g ae/ha
  Visual % injury (Ave): 99.0%
[3]; T1, 1680 g ae/ha
  Visual % injury (Ave): 100.0%
[3]; T2, 420 g ae/ha
  Visual % injury (Ave): 90.0%
[3]; T2, 1680 g ae/ha
  Visual % injury (Ave): 88.8%
[3]; T2, 3360 g ae/ha
  Visual % injury (Ave): 94.5%
[3]; T3, 420 g ae/ha
  Visual % injury (Ave): 85.0%
[3]; T3, 1680 g ae/ha
  Visual % injury (Ave): 93.7%
[3]; T3, 3360 g ae/ha
  Visual % injury (Ave): 93.7%
[4]; T1, 105 g ae/ha
  Visual % injury (Ave): 93.0%
[4]; T1, 420 g ae/ha
  Visual % injury (Ave): 98.6%
[4]; T1, 1680 g ae/ha
  Visual % injury (Ave): 98.0%
[4]; T1, 3360 g ae/ha
  Visual % injury (Ave): 96.0%
[4]; T2, 420 g ae/ha
  Visual % injury (Ave): 86.3%
[4]; T2, 1680 g ae/ha
  Visual % injury (Ave): 90.0%
[4]; T2, 3360 g ae/ha
  Visual % injury (Ave): 97.0%
[4]; T3, 420 g ae/ha
  Visual % injury (Ave): 93.3%
[4]; T3, 1680 g ae/ha
  Visual % injury (Ave): 93.0%
[4]; T3, 3360 g ae/ha
  Visual % injury (Ave): 91.7%
[5]; T1 study, 105 g ae/ha
  Visual % injury (Ave): 100.0%
[5]; T1 study, 420 g ae/ha
  Visual % injury (Ave): 100.0%
[5]; T1 study, 1680 g ae/ha
  Visual % injury (Ave): 100.0%
[5]; T1 study, 3360 g ae/ha
  Visual % injury (Ave): 100.0%
[5]; T2 study, 420 g ae/ha
  Visual % injury (Ave): 100.0%
[5]; T2 study, 1680 g ae/ha
  Visual % injury (Ave): 100.0%
[5]; T2 study, 3360 g ae/ha
  Visual % injury (Ave): 100.0%
[5]; T3 study, 420 g ae/ha
  Visual % injury (Ave): 100.0%
[5]; T3 study, 1680 g ae/ha
  Visual % injury (Ave): 100.0%
[5]; T3 study, 3360 g ae/ha
  Visual % injury (Ave): 100.0%
[6]; T2, 840 g ae/ha
  Visual % injury (Ave): 0.0%
[6]; T3, 840 g ae/ha
  Visual % injury (Ave): 0.0%
[7]; T2, 840 g ae/ha
  Visual % injury (Ave): 90.0%
[7]; T3, 840 g ae/ha
  Visual % injury (Ave): 86.3%
